Measurements taken from patent publication US9587005B2 (priority 2010, dated 2017).
Read-outs that look alike come from different tables or passages of the source. *1 amine or outer side, *2 acyl side, *3 side chain or, on linkers, in order; H or OH if unused. Where no end group is shown, it is not given here. Side-chain parts run from the residue outwards. [ ]: non-standard residue; d: D form. The star is where a group is joined. PEG8 = NCCOCCOCCOCCOCCOCCOCCOCCOCCC(=O)O; Phe(4-NH2) = Nc1ccc(C[C@H](N)C(=O)O)cc1; γGlu = O=C(O)[C@H](CCC(=O)[*:2])N[*:1]; X6 = CCCCCCCCCCCCCCCCC(CC(=O)*)C(=O)O; X3 = CCCCCCCCCCCCCCC(CC(=O)*)C(=O)O; Palmitoyl = CCCCCCCCCCCCCCCC(=O)*; PEG4 = NCCOCCOCCOCCOCCC(=O)O; Aib = CC(C)(N)C(=O)O

Columns and labels:
Type in all cases: cell-based
GIP receptor = molecular target: T1, GIP receptor (Homo sapiens, UniProt P48546); test: cAMP induction, firefly luciferase reporter assay in HEK293 cells co-transfected with GIP receptor
T1 sequence (P48546 22-466): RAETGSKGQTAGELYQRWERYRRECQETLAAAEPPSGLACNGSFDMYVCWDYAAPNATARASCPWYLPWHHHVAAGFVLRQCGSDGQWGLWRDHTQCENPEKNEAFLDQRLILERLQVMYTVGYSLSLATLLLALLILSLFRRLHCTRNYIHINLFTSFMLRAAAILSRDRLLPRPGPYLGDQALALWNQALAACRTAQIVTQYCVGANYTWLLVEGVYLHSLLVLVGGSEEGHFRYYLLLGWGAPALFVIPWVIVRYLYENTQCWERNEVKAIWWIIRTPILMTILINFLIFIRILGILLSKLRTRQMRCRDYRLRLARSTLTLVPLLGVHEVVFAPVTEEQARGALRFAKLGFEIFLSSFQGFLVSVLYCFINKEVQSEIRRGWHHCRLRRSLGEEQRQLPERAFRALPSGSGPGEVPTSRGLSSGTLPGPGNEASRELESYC

glucagon receptor = molecular target: T2, glucagon receptor (Homo sapiens, UniProt P47871); test: cAMP induction, firefly luciferase reporter assay in HEK293 cells co-transfected with glucagon receptor
T2 construct: expressed in transfected cells; host or cells: HEK293
T2 sequence (P47871 26-477): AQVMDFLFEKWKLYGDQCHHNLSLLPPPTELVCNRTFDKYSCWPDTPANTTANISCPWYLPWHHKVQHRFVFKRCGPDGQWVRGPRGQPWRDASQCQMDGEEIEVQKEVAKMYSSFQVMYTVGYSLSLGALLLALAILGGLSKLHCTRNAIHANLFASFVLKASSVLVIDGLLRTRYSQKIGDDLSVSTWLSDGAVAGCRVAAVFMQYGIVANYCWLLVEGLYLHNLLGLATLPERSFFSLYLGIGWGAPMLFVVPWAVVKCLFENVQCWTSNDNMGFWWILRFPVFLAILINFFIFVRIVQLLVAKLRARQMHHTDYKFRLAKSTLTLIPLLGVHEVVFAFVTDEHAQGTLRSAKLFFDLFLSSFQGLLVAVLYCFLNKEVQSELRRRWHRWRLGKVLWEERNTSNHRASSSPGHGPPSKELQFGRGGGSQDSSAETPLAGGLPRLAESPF
From the text: (§1) This example describes an exemplary method of testing the biological activity of the peptides of the present disclosures, which method involves assaying cAMP synthesis.

GLP-1 receptor = molecular target: T3, GLP-1 receptor (Homo sapiens, UniProt P43220); test: cAMP induction, firefly luciferase reporter assay in HEK293 cells co-transfected with GLP-1 receptor
T3 construct: expressed in transfected cells; host or cells: HEK293
T3 sequence (P43220 24-463): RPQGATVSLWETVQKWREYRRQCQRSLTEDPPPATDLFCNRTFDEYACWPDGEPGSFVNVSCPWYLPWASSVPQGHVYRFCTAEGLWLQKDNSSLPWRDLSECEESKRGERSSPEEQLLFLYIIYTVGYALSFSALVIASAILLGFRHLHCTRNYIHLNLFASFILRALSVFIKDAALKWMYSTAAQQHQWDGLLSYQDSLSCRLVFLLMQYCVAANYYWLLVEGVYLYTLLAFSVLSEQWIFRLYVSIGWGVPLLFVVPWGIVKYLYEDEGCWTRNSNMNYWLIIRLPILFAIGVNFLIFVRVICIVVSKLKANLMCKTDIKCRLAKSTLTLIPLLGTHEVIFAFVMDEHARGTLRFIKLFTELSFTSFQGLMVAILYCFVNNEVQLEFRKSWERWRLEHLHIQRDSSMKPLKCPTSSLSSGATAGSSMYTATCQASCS
From the text: as §1

[1] = GIP Receptor EC50, Table 11, Example 18
[2] = Glucagon Receptor EC50, Table 11, Example 18
[3] = GLP-1 Receptor EC50, Table 11, Example 18
[4] = EC50 (nM) at GIP receptor, Table 16, Example 24
[5] = EC50 (nM) at glucagon receptor, Table 16, Example 24
[6] = EC50 (nM) at GLP-1 receptor, Table 16, Example 24

In the case of “H-H[Aib]QGTFTSDYSKYLDERAAQDFVQWLLDGGPSSGAPPPSK([PEG4-γGlu-Palmitoyl])G-NH2 [SEQ ID NO: 158]”, the EC50 (GIP receptor; [1]) is reported as 0.005 nM, the EC50 (glucagon receptor; [2]) is reported as 0.004 nM and the EC50 (GLP-1 receptor; [3]) is reported as 0.003 nM.
With “H[Aib]QGTFTSDYSKYLDERAAQDFVQWLLAGGPSSGAPPPSK([γGlu-γGlu-Palmitoyl])G-NH2 [SEQ ID NO: 203]” the EC50 (GIP receptor; [4]) was 0.007 nM, the EC50 (glucagon receptor; [5]) was 0.003 nM and the EC50 (GLP-1 receptor; [6]) was 0.001 nM.
Work on “H[Aib]QGTFTSDYSKYLDERAAQDFVQWLLDGGPSSGAPPPSK(X3)G-NH2 [SEQ ID NO: 176]” yielded an EC50 (GIP receptor; GIP-1 Receptor EC50, Table 10, Example 16) of 0.101 nM, an EC50 (glucagon receptor) of 0.012 nM and an EC50 (GLP-1 receptor; GLP-1 Receptor EC50, Table 10, Example 16) of 0.014 nM.
“H[Aib]QGTFTSDYSKYLDERAAQDFVQWLLDGGPSSGAPPPSK(X6)G-NH2 [SEQ ID NO: 156]” was tested, and the EC50 (GIP receptor; [1]) was 0.006 nM, the EC50 (glucagon receptor) was 0.003 nM and the EC50 (GLP-1 receptor; [3]) was 0.003 nM.
With “H[Aib]QGTFTSDYSKYLDERAAQDFVQWLLDGGPSSGAPPPSK([PEG8-γGlu-Palmitoyl])G-NH2 [SEQ ID NO: 159]” the EC50 (GIP receptor; [1]) was 0.002 nM, the EC50 (glucagon receptor; [2]) was 0.006 nM and the EC50 (GLP-1 receptor; [3]) was 0.005 nM.
For “H[Aib]QGTFTSDYSKYLDERAAQDFVQWLLDGGPSSGAPPPSK([γGlu-γGlu-Palmitoyl])G-NH2 [SEQ ID NO: 89]”, the EC50 (GIP receptor; [4]) was 0.028 nM, the EC50 (glucagon receptor; [5]) was 0.006 nM and the EC50 (GLP-1 receptor; EC50 (nM) at GLP-1 receptor, Table 15, Example 23) was 0.004 nM. For the same substance, the EC50 (GLP-1 receptor; [6]) was 0.005 nM.
Substance “H[Aib]QGTFTSDYSKYLDERAAQDFVQWLLDGGPSSGAPPPS[Phe(4-NH2)](X6)G-NH2 [SEQ ID NO: 146]” has an EC50 (GIP receptor) of 0.052 nM, an EC50 (glucagon receptor) of 0.007 nM and an EC50 (GLP-1 receptor) of 0.007 nM.
“H[Aib]QGTFTSDYSKYLDERAAQDFVQWLLDGGPSSGAPPPS[Phe(4-NH2)]([γGlu-γGlu-Palmitoyl])G-NH2 [SEQ ID NO: 145]” was tested, and the EC50 (GIP receptor) was 0.017 nM, the EC50 (glucagon receptor) was 0.002 nM and the EC50 (GLP-1 receptor) was 0.002 nM.
